# Results from patent US20240228572A1 (i2o Therapeutics, Inc., priority 2020, published 2024).
# *1 amine or outer side, *2 acyl side, *3 side chain or, on linkers, in order; H or OH if unused. Where a SMILES comes first, the peptide text is derived from it. Bridges are numbered along the chain shown (N, C = ends). Side-chain parts run from the residue outwards. The star is where a group is joined. C20 diacid = O=C(O)CCCCCCCCCCCCCCCCCCC(=O)*; γGlu = O=C(O)[C@H](CCC(=O)[*:2])N[*:1]; AEEA = NCCOCCOCC(=O)O
# Assays:
# [1] = target: T1, human Glucagon receptor (GCGR) (Homo sapiens, UniProt P47871); assay: cAMP accumulation assay, CHO-K1 cells expressing human GCGR; assay type: cell-based; details: mean pEC50, Table 10
# T1 construct: A cDNA fragment encoding the full-length open reading frame of the human GCGR; expressed in transfected cells; host or cells: CHO-K1, pcDNA3.1+, Lipofectamine 2000
# [2] = target: T2, human GLP-1 receptor (GLP-1R) (Homo sapiens, UniProt P43220); assay: cAMP accumulation assay, CHO-K1 cells stably expressing human GLP-1R; assay type: cell-based; details: cAMP accumulation, mean pEC50, Table 10
# T2 construct: expressed in transfected cells
# T2 sequence (P43220 24-463): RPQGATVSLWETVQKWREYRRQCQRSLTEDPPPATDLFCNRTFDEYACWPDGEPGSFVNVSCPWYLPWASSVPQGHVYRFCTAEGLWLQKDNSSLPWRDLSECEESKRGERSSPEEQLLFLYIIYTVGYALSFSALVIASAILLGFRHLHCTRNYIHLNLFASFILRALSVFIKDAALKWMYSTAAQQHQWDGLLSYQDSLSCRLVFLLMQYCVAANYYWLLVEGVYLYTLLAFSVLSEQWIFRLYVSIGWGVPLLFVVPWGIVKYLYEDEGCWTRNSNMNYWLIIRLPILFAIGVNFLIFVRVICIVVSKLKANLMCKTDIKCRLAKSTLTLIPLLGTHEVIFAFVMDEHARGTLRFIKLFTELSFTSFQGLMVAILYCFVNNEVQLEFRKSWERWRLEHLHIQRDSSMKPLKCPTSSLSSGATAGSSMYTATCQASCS
# T1 sequence (P47871 26-477): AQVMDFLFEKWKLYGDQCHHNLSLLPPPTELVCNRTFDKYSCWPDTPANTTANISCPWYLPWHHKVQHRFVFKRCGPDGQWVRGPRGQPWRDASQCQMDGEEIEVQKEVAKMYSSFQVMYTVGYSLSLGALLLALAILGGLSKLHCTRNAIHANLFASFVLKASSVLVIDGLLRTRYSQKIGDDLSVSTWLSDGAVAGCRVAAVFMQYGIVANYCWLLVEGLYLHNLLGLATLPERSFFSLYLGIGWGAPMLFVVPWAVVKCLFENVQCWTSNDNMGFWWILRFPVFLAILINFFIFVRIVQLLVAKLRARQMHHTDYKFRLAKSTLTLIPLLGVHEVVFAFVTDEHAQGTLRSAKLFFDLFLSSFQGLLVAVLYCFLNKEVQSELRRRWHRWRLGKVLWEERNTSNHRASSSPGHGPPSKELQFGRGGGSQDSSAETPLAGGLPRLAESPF
smiles,measurement,setting,value
CC(C)C[C@H](NC(=O)[C@H](Cc1ccc(O)cc1)NC(=O)[C@H](CCCCN)NC(=O)[C@H](CO)NC(=O)[C@H](Cc1ccc(O)cc1)NC(=O)[C@H](CC(=O)O)NC(=O)[C@H](CO)NC(=O)[C@@H](NC(=O)[C@H](Cc1ccccc1)NC(=O)[C@@H](NC(=O)CNC(=O)[C@H](Cc1c[nH]cn1)NC(=O)[C@H](CO)NC(=O)[C@@H](N)Cc1ccc(O)cc1)[C@@H](C)O)[C@@H](C)O)C(=O)N[C@@H](CC(=O)O)C(=O)N[C@@H](CCCCNC(=O)CC[C@H](NC(=O)CC[C@H](NC(=O)COCCOCCNC(=O)CCCCCCCCCCCCCCCCCCC(=O)O)C(=O)O)C(=O)O)C(=O)N[C@@H](CCCCN)C(=O)N[C@@H](Cc1ccc(O)cc1)C(=O)N[C@@H](C)C(=O)N[C@H]1CCC(=O)NCCCC[C@@H](C(=O)N[C@@H](Cc2c[nH]c3ccccc23)C(=O)N[C@@H](CC(C)C)C(=O)N[C@@H](CCC(=O)O)C(=O)N[C@@H](CCCCN)C(=O)N[C@@H](CCC(=O)O)C(=O)N2CCC[C@H]2C(=O)N[C@@H](CO)C(=O)N[C@@H](CO)C(=O)NCC(=O)N[C@@H](C)C(=O)N2CCC[C@H]2C(=O)N2CCC[C@H]2C(=O)N2CCC[C@H]2C(=O)N[C@@H](CO)C(=O)O)NC(=O)[C@H](C(C)C)NC(=O)[C@H](Cc2ccccc2)NC(=O)[C@H](CCCCN)NC1=O [Compound A26] (H-YSHGTFTSDYSKYLDK([γGlu-γGlu-AEEA-C20 diacid])KYAEKFVKWLEKEPSSGAPPPS-OH; lactam 20-24; N-terminus assumed),EC50,[1],7.94 pM
same,EC50,[2],> 1 nM
CC(C)C[C@H](NC(=O)[C@H](Cc1ccc(O)cc1)NC(=O)[C@H](CCCCN)NC(=O)[C@H](CO)NC(=O)[C@H](Cc1ccc(O)cc1)NC(=O)[C@H](CC(=O)O)NC(=O)[C@H](CO)NC(=O)[C@@H](NC(=O)[C@H](Cc1ccccc1)NC(=O)[C@@H](NC(=O)CNC(=O)[C@H](Cc1c[nH]cn1)NC(=O)[C@H](CO)NC(=O)[C@@H](N)Cc1ccc(O)cc1)[C@@H](C)O)[C@@H](C)O)C(=O)N[C@@H](CC(=O)O)C(=O)N[C@@H](CCCCNC(=O)CC[C@H](NC(=O)CC[C@H](NC(=O)COCCOCCNC(=O)CCCCCCCCCCCCCCCCCCC(=O)O)C(=O)O)C(=O)O)C(=O)N[C@@H](CCCCN)C(=O)N[C@@H](Cc1ccc(O)cc1)C(=O)N[C@@H](C)C(=O)N[C@H]1CCC(=O)NCCCC[C@@H](C(=O)N[C@@H](Cc2c[nH]c3ccccc23)C(=O)N[C@@H](CC(C)C)C(=O)N[C@@H](CCC(=O)O)C(=O)N[C@@H](CC(N)=O)C(=O)N[C@@H](CCC(=O)O)C(=O)N2CCC[C@H]2C(=O)N[C@@H](CO)C(=O)N[C@@H](CO)C(=O)NCC(=O)N[C@@H](C)C(=O)N2CCC[C@H]2C(=O)N2CCC[C@H]2C(=O)N2CCC[C@H]2C(=O)N[C@@H](CO)C(=O)O)NC(=O)[C@H](C(C)C)NC(=O)[C@H](Cc2ccccc2)NC(=O)[C@H](CCCCN)NC1=O [Compound A27] (H-YSHGTFTSDYSKYLDK([γGlu-γGlu-AEEA-C20 diacid])KYAEKFVKWLENEPSSGAPPPS-OH; lactam 20-24; N-terminus assumed),EC50,[1],1 pM
same,EC50,[2],> 1 nM
CC(C)C[C@H](NC(=O)[C@H](Cc1ccc(O)cc1)NC(=O)[C@H](CCCCN)NC(=O)[C@H](CO)NC(=O)[C@H](Cc1ccc(O)cc1)NC(=O)[C@H](CC(=O)O)NC(=O)[C@H](CO)NC(=O)[C@@H](NC(=O)[C@H](Cc1ccccc1)NC(=O)[C@@H](NC(=O)CNC(=O)[C@H](Cc1c[nH]cn1)NC(=O)[C@H](CO)NC(=O)[C@@H](N)Cc1ccc(O)cc1)[C@@H](C)O)[C@@H](C)O)C(=O)N[C@@H](CC(=O)O)C(=O)N[C@@H](CCCCNC(=O)CC[C@H](NC(=O)CC[C@H](NC(=O)COCCOCCNC(=O)CCCCCCCCCCCCCCCCCCC(=O)O)C(=O)O)C(=O)O)C(=O)N[C@@H](CCCCN)C(=O)N[C@@H](Cc1ccc(O)cc1)C(=O)N[C@@H](C)C(=O)N[C@H]1CCC(=O)NCCCC[C@@H](C(=O)N[C@@H](Cc2c[nH]c3ccccc23)C(=O)N[C@@H](CC(C)C)C(=O)N[C@@H](CCC(=O)O)C(=O)N[C@@H](CO)C(=O)N[C@@H](CCC(=O)O)C(=O)N2CCC[C@H]2C(=O)N[C@@H](CO)C(=O)N[C@@H](CO)C(=O)NCC(=O)N[C@@H](C)C(=O)N2CCC[C@H]2C(=O)N2CCC[C@H]2C(=O)N2CCC[C@H]2C(=O)N[C@@H](CO)C(=O)O)NC(=O)[C@H](C(C)C)NC(=O)[C@H](Cc2ccccc2)NC(=O)[C@H](CCCCN)NC1=O [Compound A28] (H-YSHGTFTSDYSKYLDK([γGlu-γGlu-AEEA-C20 diacid])KYAEKFVKWLESEPSSGAPPPS-OH; lactam 20-24; N-terminus assumed),EC50,[1],2 pM
same,EC50,[2],> 1 nM
CC(C)C[C@H](NC(=O)[C@H](Cc1ccc(O)cc1)NC(=O)[C@H](CCCCN)NC(=O)[C@H](CO)NC(=O)[C@H](Cc1ccc(O)cc1)NC(=O)[C@H](CC(=O)O)NC(=O)[C@H](CO)NC(=O)[C@@H](NC(=O)[C@H](Cc1ccccc1)NC(=O)[C@@H](NC(=O)CNC(=O)[C@H](Cc1c[nH]cn1)NC(=O)[C@H](CO)NC(=O)[C@@H](N)Cc1ccc(O)cc1)[C@@H](C)O)[C@@H](C)O)C(=O)N[C@@H](CC(=O)O)C(=O)N[C@@H](CCCCNC(=O)CC[C@H](NC(=O)CC[C@H](NC(=O)COCCOCCNC(=O)CCCCCCCCCCCCCCCCCCC(=O)O)C(=O)O)C(=O)O)C(=O)N[C@@H](CCCCN)C(=O)N[C@@H](Cc1ccc(O)cc1)C(=O)N[C@@H](C)C(=O)N[C@H]1CCC(=O)NCCCC[C@@H](C(=O)N[C@@H](Cc2c[nH]c3ccccc23)C(=O)N[C@@H](CC(C)C)C(=O)N[C@@H](CCC(=O)O)C(=O)N[C@@H](CC(=O)O)C(=O)N[C@@H](CCC(=O)O)C(=O)N2CCC[C@H]2C(=O)N[C@@H](CO)C(=O)N[C@@H](CO)C(=O)NCC(=O)N[C@@H](CCC(=O)O)C(=O)N2CCC[C@H]2C(=O)N2CCC[C@H]2C(=O)N2CCC[C@H]2C(=O)N[C@@H](CO)C(=O)O)NC(=O)[C@H](C(C)C)NC(=O)[C@H](Cc2ccccc2)NC(=O)[C@H](CCCCN)NC1=O [Compound A31] (H-YSHGTFTSDYSKYLDK([γGlu-γGlu-AEEA-C20 diacid])KYAEKFVKWLEDEPSSGEPPPS-OH; lactam 20-24; N-terminus assumed),EC50,[1],1.26 pM
same,EC50,[2],> 1 nM
CC(C)C[C@H](NC(=O)[C@H](Cc1ccc(O)cc1)NC(=O)[C@H](CCCCN)NC(=O)[C@H](CO)NC(=O)[C@H](Cc1ccc(O)cc1)NC(=O)[C@H](CC(=O)O)NC(=O)[C@H](CO)NC(=O)[C@@H](NC(=O)[C@H](Cc1ccccc1)NC(=O)[C@@H](NC(=O)CNC(=O)[C@H](Cc1c[nH]cn1)NC(=O)[C@H](CO)NC(=O)[C@@H](N)Cc1ccc(O)cc1)[C@@H](C)O)[C@@H](C)O)C(=O)N[C@@H](CC(=O)O)C(=O)N[C@@H](CCCCNC(=O)CC[C@H](NC(=O)CC[C@H](NC(=O)COCCOCCNC(=O)CCCCCCCCCCCCCCCCCCC(=O)O)C(=O)O)C(=O)O)C(=O)N[C@@H](CCCCN)C(=O)N[C@@H](Cc1ccc(O)cc1)C(=O)N[C@@H](C)C(=O)N[C@H]1CCC(=O)NCCCC[C@@H](C(=O)N[C@@H](Cc2c[nH]c3ccccc23)C(=O)N[C@@H](CC(C)C)C(=O)N[C@@H](CCC(=O)O)C(=O)N[C@@H](CC(=O)O)C(=O)N[C@@H](CCC(=O)O)C(=O)N2CCC[C@H]2C(=O)N[C@@H](CO)C(=O)N[C@@H](CO)C(=O)NCC(=O)N[C@@H](CCCCN)C(=O)N2CCC[C@H]2C(=O)N2CCC[C@H]2C(=O)N2CCC[C@H]2C(=O)N[C@@H](CO)C(=O)O)NC(=O)[C@H](C(C)C)NC(=O)[C@H](Cc2ccccc2)NC(=O)[C@H](CCCCN)NC1=O [Compound A32] (H-YSHGTFTSDYSKYLDK([γGlu-γGlu-AEEA-C20 diacid])KYAEKFVKWLEDEPSSGKPPPS-OH; lactam 20-24; N-terminus assumed),EC50,[1],2 pM
same,EC50,[2],> 1 nM
CC(C)C[C@H](NC(=O)[C@H](Cc1ccc(O)cc1)NC(=O)[C@H](CCCCN)NC(=O)[C@H](CO)NC(=O)[C@H](Cc1ccc(O)cc1)NC(=O)[C@H](CC(=O)O)NC(=O)[C@H](CO)NC(=O)[C@@H](NC(=O)[C@H](Cc1ccccc1)NC(=O)[C@@H](NC(=O)CNC(=O)[C@H](Cc1c[nH]cn1)NC(=O)[C@H](CO)NC(=O)[C@@H](N)Cc1ccc(O)cc1)[C@@H](C)O)[C@@H](C)O)C(=O)N[C@@H](CC(=O)O)C(=O)N[C@@H](CCCCNC(=O)CC[C@H](NC(=O)CC[C@H](NC(=O)COCCOCCNC(=O)CCCCCCCCCCCCCCCCCCC(=O)O)C(=O)O)C(=O)O)C(=O)N[C@@H](CCCCN)C(=O)N[C@@H](Cc1ccc(O)cc1)C(=O)N[C@@H](C)C(=O)N[C@H]1CCC(=O)NCCCC[C@@H](C(=O)N[C@@H](Cc2c[nH]c3ccccc23)C(=O)N[C@@H](CC(C)C)C(=O)N[C@@H](CCC(=O)O)C(=O)N[C@@H](CC(=O)O)C(=O)N[C@@H](CCC(=O)O)C(=O)N2CCC[C@H]2C(=O)N[C@@H](CO)C(=O)N[C@@H](CO)C(=O)NCC(=O)N[C@@H](CO)C(=O)N2CCC[C@H]2C(=O)N2CCC[C@H]2C(=O)N2CCC[C@H]2C(=O)N[C@@H](CO)C(=O)O)NC(=O)[C@H](C(C)C)NC(=O)[C@H](Cc2ccccc2)NC(=O)[C@H](CCCCN)NC1=O [Compound A33] (H-YSHGTFTSDYSKYLDK([γGlu-γGlu-AEEA-C20 diacid])KYAEKFVKWLEDEPSSGSPPPS-OH; lactam 20-24; N-terminus assumed),EC50,[1],1.26 pM
same,EC50,[2],> 1 nM
